Assay results taken from PubChem BioAssay (NCI).
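Cells were grown in 96-well plates and exposed to each compound for 48 hours at five concentrations; endpoints were interpolated linearly between bracketing concentrations, or set to the highest concentration if not reached. The concentration for full growth arrest is given as TGI.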

Tests used:
Assay in all cases: inhibition of tumour cell growth, NCI panel, 48 h
[1] = system: OVCAR-8 ovarian
[2] = system: NCI-H226 lung
[3] = system: MDA-MB-231 breast
[4] = system: HOP-62 NSCLC
[5] = system: A498 renal
[6] = system: NCI-H460 lung
[7] = system: SF-268 CNS
[8] = system: 786-0 renal
[9] = system: SF-295 CNS
[10] = system: HOP-92 NSCLC
[11] = system: NCI-H23 lung
[12] = system: UACC-257 melanoma
[13] = system: U251 CNS
[14] = system: HCC-2998 colon
[15] = system: HCT-15 colon
[16] = system: CCRF-CEM leukemia

## CS(=O)(=O)c1ccc(/C=N/NC(N)=S)cc1
[1]
  TGI: > 100 µM
[2]
  TGI: > 100 µM
[3]
  TGI: > 100 µM
[4]
  TGI: > 100 µM
[5]
  TGI: > 100 µM
[6]
  TGI: > 100 µM
[7]
  TGI: > 100 µM
[8]
  TGI: > 100 µM
[9]
  TGI: > 100 µM
[10]
  TGI: > 100 µM
[11]
  TGI: > 100 µM
[12]
  TGI: > 100 µM
[13]
  TGI: > 100 µM
[14]
  TGI: > 100 µM
[15]
  TGI: > 100 µM

## Nc1sc2c(c1C(=O)c1ccc(Cl)c(Cl)c1)CCCC2
[1]
  TGI: > 100 µM
[2]
  TGI: > 100 µM
[3]
  TGI: > 100 µM
[4]
  TGI: > 100 µM
[6]
  TGI: > 100 µM
[7]
  TGI: > 100 µM
[8]
  TGI: > 100 µM
[9]
  TGI: > 100 µM
[10]
  TGI: > 100 µM
[16]
  TGI: > 100 µM
[11]
  TGI: > 100 µM
[12]
  TGI: > 100 µM
[13]
  TGI: > 100 µM
[14]
  TGI: 49.3 µM
[15]
  TGI: > 100 µM

## Cc1ccc(-c2nc(C)c(C(=O)Nc3ccc(Cl)cc3)s2)cc1
[1]
  TGI: 36.9 µM
[2]
  TGI: 48.5 µM
[3]
  TGI: 75.6 µM
[4]
  TGI: 26.2 µM
[5]
  TGI: 41.5 µM
[6]
  TGI: > 100 µM
[7]
  TGI: 91.8 µM
[8]
  TGI: 29.3 µM
[9]
  TGI: 33.7 µM
[10]
  TGI: 70.2 µM
[16]
  TGI: > 100 µM
[11]
  TGI: 83.6 µM
[12]
  TGI: > 100 µM
[13]
  TGI: 48.8 µM
[15]
  TGI: > 100 µM

## Cc1ccc2c3c1O[C@H]1c4[nH]c5ccccc5c4C[C@@]4(O)[C@@H](C2)N(C)CC[C@]314
[1]
  TGI: 34.8 µM
[2]
  TGI: 23.1 µM
[3]
  TGI: 28.5 µM
[5]
  TGI: 32.3 µM
[7]
  TGI: 34.7 µM
[8]
  TGI: 29.8 µM
[10]
  TGI: 23.2 µM
[16]
  TGI: 35 µM
[11]
  TGI: 40.4 µM
[12]
  TGI: 28.2 µM
[13]
  TGI: 29.5 µM
[15]
  TGI: 32.5 µM

## Cc1cc(N(CCC#N)CCC#N)ccc1/C(N=Nc1ccc(Cl)cc1)=N\NC(=O)c1cc(Cl)ccc1O
[1]
  TGI: > 100 µM
[2]
  TGI: 85.1 µM
[3]
  TGI: > 100 µM
[4]
  TGI: 56.6 µM
[5]
  TGI: > 100 µM
[6]
  TGI: > 100 µM
[7]
  TGI: 86.2 µM
[8]
  TGI: > 100 µM
[9]
  TGI: 91.4 µM
[16]
  TGI: > 100 µM
[11]
  TGI: > 100 µM
[12]
  TGI: > 100 µM
[13]
  TGI: > 100 µM
[14]
  TGI: > 100 µM
[15]
  TGI: > 100 µM

## COC(=O)c1c2c(cc3c1CC1(Cc4cc5c(c(C=O)c4C1)CCCC5)C3)CCCC2 (stereo not drawn)
[1]
  TGI: > 100 µM
[2]
  TGI: > 100 µM
[3]
  TGI: > 100 µM
[4]
  TGI: > 100 µM
[5]
  TGI: > 100 µM
[8]
  TGI: > 100 µM
[9]
  TGI: > 100 µM
[10]
  TGI: > 100 µM
[11]
  TGI: > 100 µM
[12]
  TGI: > 100 µM
[13]
  TGI: > 100 µM
[14]
  TGI: > 100 µM
[15]
  TGI: > 100 µM

## CN(C)C(Cc1cnc[nH]1)C(=O)N1CCCC1C(N)=O (stereo not drawn)
[1]
  TGI: > 100 µM
[2]
  TGI: > 100 µM
[3]
  TGI: > 100 µM
[4]
  TGI: > 100 µM
[5]
  TGI: 98 µM
[6]
  TGI: > 100 µM
[7]
  TGI: > 100 µM
[8]
  TGI: > 100 µM
[9]
  TGI: > 100 µM
[10]
  TGI: > 100 µM
[16]
  TGI: > 100 µM
[11]
  TGI: > 100 µM
[13]
  TGI: > 100 µM
[14]
  TGI: > 100 µM
[15]
  TGI: > 100 µM

## OCC1OC(n2nc(-c3ccccc3)nc2-c2cnccn2)C(O)C(O)C1O (stereo not drawn)
[1]
  TGI: > 100 µM
[3]
  TGI: > 100 µM
[4]
  TGI: > 100 µM
[6]
  TGI: > 100 µM
[8]
  TGI: > 100 µM
[9]
  TGI: > 100 µM
[10]
  TGI: > 100 µM
[16]
  TGI: > 100 µM
[11]
  TGI: > 100 µM
[12]
  TGI: > 100 µM
[13]
  TGI: > 100 µM
[14]
  TGI: > 100 µM
[15]
  TGI: > 100 µM

## CCOC(=O)c1cnn2c1ncc1c(=O)n(NC(N)=O)ccc12
[1]
  TGI: > 100 µM
[2]
  TGI: > 100 µM
[3]
  TGI: > 100 µM
[4]
  TGI: > 100 µM
[5]
  TGI: > 100 µM
[6]
  TGI: > 100 µM
[7]
  TGI: > 100 µM
[8]
  TGI: > 100 µM
[9]
  TGI: > 100 µM
[10]
  TGI: > 100 µM
[16]
  TGI: > 100 µM
[11]
  TGI: > 100 µM
[12]
  TGI: > 100 µM
[13]
  TGI: > 100 µM
[15]
  TGI: > 100 µM

## CC(C)(C)c1cc(CC2C(=O)c3ccccc3C2=O)cc(C(C)(C)C)c1O
[1]
  TGI: 14.7 µM
[3]
  TGI: 7.74 µM
[4]
  TGI: 9.08 µM
[5]
  TGI: 47.7 µM
[6]
  TGI: 43.3 µM
[7]
  TGI: 17.1 µM
[8]
  TGI: 21.1 µM
[9]
  TGI: 12.4 µM
[10]
  TGI: 1.07 µM
[16]
  TGI: 40.7 µM
[11]
  TGI: > 100 µM
[12]
  TGI: 15.4 µM
[13]
  TGI: 13.2 µM
[15]
  TGI: 14.8 µM

## Cc1ccc(S(=O)(=O)N2CCCN(S(=O)(=O)c3ccc(C)cc3)CCN(S(=O)(=O)c3ccc(C)cc3)CCCSCC2)cc1
[1]
  TGI: > 100 µM
[2]
  TGI: > 100 µM
[3]
  TGI: > 100 µM
[4]
  TGI: > 100 µM
[5]
  TGI: > 100 µM
[6]
  TGI: > 100 µM
[7]
  TGI: > 100 µM
[8]
  TGI: > 100 µM
[9]
  TGI: > 100 µM
[10]
  TGI: > 100 µM
[16]
  TGI: > 100 µM
[11]
  TGI: > 100 µM
[13]
  TGI: > 100 µM
[14]
  TGI: > 100 µM

## CC(=O)Nc1ccc(Nc2cc(=O)[nH]c(=O)[nH]2)cc1
[1]
  TGI: > 100 µM
[2]
  TGI: > 100 µM
[3]
  TGI: > 100 µM
[4]
  TGI: > 100 µM
[5]
  TGI: > 100 µM
[6]
  TGI: > 100 µM
[7]
  TGI: > 100 µM
[8]
  TGI: > 100 µM
[9]
  TGI: > 100 µM
[10]
  TGI: > 100 µM
[12]
  TGI: > 100 µM
[13]
  TGI: > 100 µM
[14]
  TGI: > 100 µM
[15]
  TGI: > 100 µM

## O=C(OCc1ccccc1CN1CCOCC1)c1cccc(Br)c1
[1]
  TGI: > 100 µM
[2]
  TGI: > 100 µM
[3]
  TGI: > 100 µM
[4]
  TGI: > 100 µM
[5]
  TGI: > 100 µM
[6]
  TGI: > 100 µM
[7]
  TGI: > 100 µM
[8]
  TGI: > 100 µM
[10]
  TGI: > 100 µM
[11]
  TGI: 80 µM
[12]
  TGI: 63.4 µM
[13]
  TGI: > 100 µM
[14]
  TGI: > 100 µM
[15]
  TGI: > 100 µM

## Cc1cccc(C(C)C)c1NC(=O)C(=O)CC(=O)c1sc(Nc2ccccc2Cl)nc1C
[3]
  TGI: > 100 µM
[4]
  TGI: > 100 µM
[5]
  TGI: > 100 µM
[6]
  TGI: 51.1 µM
[7]
  TGI: > 100 µM
[8]
  TGI: > 100 µM
[9]
  TGI: > 100 µM
[10]
  TGI: 66.2 µM
[16]
  TGI: > 100 µM
[11]
  TGI: > 100 µM
[12]
  TGI: > 100 µM
[13]
  TGI: > 100 µM
[14]
  TGI: 32.7 µM
[15]
  TGI: > 100 µM

## CCC(C#N)(c1ccccc1)N(CCc1ccccc1)C(=O)c1ccccc1 (stereo not drawn)
[1]
  TGI: 54.2 µM
[2]
  TGI: 39.7 µM
[3]
  TGI: 52.2 µM
[4]
  TGI: 50.8 µM
[5]
  TGI: 79.6 µM
[7]
  TGI: > 100 µM
[8]
  TGI: 37.5 µM
[9]
  TGI: > 100 µM
[10]
  TGI: 45.2 µM
[16]
  TGI: > 100 µM
[11]
  TGI: > 100 µM
[12]
  TGI: > 100 µM
[13]
  TGI: > 100 µM
[14]
  TGI: > 100 µM
[15]
  TGI: > 100 µM
